Data from ChEMBL document CHEMBL2413072, “Synthesis and in vitro anticancer studies of novel C-2 arylidene congeners of lantadenes” (2013).

Key:
Format in all cases: functional
SK-MEL-28 = assay: Growth inhibition of human SK-MEL-28 cells by sulforhodamine B assay
786-0 [1] = assay: Growth inhibition of human 786-0 cells assessed as cell growth at 10^-8 M by sulforhodamine B assay; details: read-out: Activity
[2] = Growth inhibition of human NCI-ADR-RES cells assessed as cell growth at 10^-7 M by sulforhodamine B assay; details: read-out: Activity
OVCAR-3 = assay: Growth inhibition of human OVCAR3 cells assessed as cell growth at 10^-8 M by sulforhodamine B assay; details: read-out: Activity
[3] = Growth inhibition of human Hs 578T cells assessed as cell growth at 10^-7 M by sulforhodamine B assay; details: read-out: Activity
786-0 [4] = assay: Growth inhibition of human 786-0 cells by sulforhodamine B assay
NCI-H522 = assay: Growth inhibition of human NCI-H522 cells assessed as cell growth at 10^-7 M by sulforhodamine B assay; details: read-out: Activity
NCI-H460 = assay: Growth inhibition of human NCI-H460 cells by sulforhodamine B assay
IGROV-1 [5] = assay: Growth inhibition of human IGROV1 cells assessed as cell growth at 10^-8 M by sulforhodamine B assay; details: read-out: Activity
MDA-MB-468 [6] = assay: Growth inhibition of human MDA-MB-468 cells by sulforhodamine B assay
MDA-MB-435 = assay: Growth inhibition of human MDA-MB-435 cells assessed as cell growth at 10^-8 M by sulforhodamine B assay; details: read-out: Activity
Malme-3M = assay: Growth inhibition of human MALME-3M cells assessed as cell growth at 10^-7 M by sulforhodamine B assay; details: read-out: Activity
HCT-116 [7] = assay: Growth inhibition of human HCT116 cells assessed as cell growth at 10^-6 M by sulforhodamine B assay; details: read-out: Activity
TK-10 [8] = assay: Growth inhibition of human TK10 cells assessed as cell growth at 10^-6 M by sulforhodamine B assay; details: read-out: Activity
COLO 205 = assay: Growth inhibition of human COLO205 cells assessed as cell growth at 10^-8 M by sulforhodamine B assay; details: read-out: Activity
K562 [9] = assay: Growth inhibition of human K562 cells assessed as cell growth at 10^-8 M by sulforhodamine B assay; details: read-out: Activity
HOP-92 = assay: Growth inhibition of human HOP92 cells assessed as cell growth at 10^-6 M by sulforhodamine B assay; details: read-out: Activity
NCI-H23 = assay: Growth inhibition of human NCI-H23 cells assessed as cell growth at 10^-4 M by sulforhodamine B assay; details: read-out: Activity
MDA-MB-231 [10] = assay: Growth inhibition of human MDA-MB-231 cells assessed as cell growth at 10^-7 M by sulforhodamine B assay; details: read-out: Activity
RPMI-8226 = assay: Growth inhibition of human RPMI8226 cells assessed as cell growth at 10^-4 M by sulforhodamine B assay; details: read-out: Activity
MDA-MB-231 [11] = assay: Growth inhibition of human MDA-MB-231 cells assessed as cell growth at 10^-6 M by sulforhodamine B assay; details: read-out: Activity
MDA-MB-468 [12] = assay: Growth inhibition of human MDA-MB-468 cells assessed as cell growth at 10^-4 M by sulforhodamine B assay; details: read-out: Activity
TK-10 [13] = assay: Growth inhibition of human TK10 cells assessed as cell growth at 10^-7 M by sulforhodamine B assay; details: read-out: Activity
RXF 393 = assay: Growth inhibition of human RXF393 cells by sulforhodamine B assay
CCRF-CEM [14] = assay: Growth inhibition of human CCRF-CEM cells assessed as cell growth at 10^-6 M by sulforhodamine B assay; details: read-out: Activity
SN12C [15] = assay: Growth inhibition of human SN12C cells assessed as cell growth at 10^-6 M by sulforhodamine B assay; details: read-out: Activity
OVCAR-4 = assay: Growth inhibition of human OVCAR4 cells assessed as cell growth at 10^-4 M by sulforhodamine B assay; details: read-out: Activity
[16] = Growth inhibition of human NCI-ADR-RES cells assessed as cell growth at 10^-4 M by sulforhodamine B assay; details: read-out: Activity
SN12C [17] = assay: Growth inhibition of human SN12C cells assessed as cell growth at 10^-7 M by sulforhodamine B assay; details: read-out: Activity
UACC-62 = assay: Growth inhibition of human UACC62 cells assessed as cell growth at 10^-7 M by sulforhodamine B assay; details: read-out: Activity
IGROV-1 [18] = assay: Growth inhibition of human IGROV1 cells assessed as cell growth at 10^-6 M by sulforhodamine B assay; details: read-out: Activity
M14 = assay: Growth inhibition of human M14 cells by sulforhodamine B assay
CAKI-1 = assay: Growth inhibition of human CAKI-1 cells assessed as cell growth at 10^-7 M by sulforhodamine B assay; details: read-out: Activity
K562 [19] = assay: Growth inhibition of human K562 cells assessed as cell growth at 10^-6 M by sulforhodamine B assay; details: read-out: Activity
SK-MEL-2 = assay: Growth inhibition of human SK-MEL-2 cells assessed as cell growth at 10^-8 M by sulforhodamine B assay; details: read-out: Activity
MDA-MB-231 [20] = assay: Growth inhibition of human MDA-MB-231 cells by sulforhodamine B assay
HCT-116 [21] = assay: Growth inhibition of human HCT116 cells assessed as cell growth at 10^-4 M by sulforhodamine B assay; details: read-out: Activity
NCI-H226 = assay: Growth inhibition of human NCI-H226 cells assessed as cell growth at 10^-8 M by sulforhodamine B assay; details: read-out: Activity
HL-60(TB) = assay: Growth inhibition of human HL-60(TB) cells assessed as cell growth at 10^-4 M by sulforhodamine B assay; details: read-out: Activity
SN12C [22] = assay: Growth inhibition of human SN12C cells assessed as cell growth at 10^-8 M by sulforhodamine B assay; details: read-out: Activity
CCRF-CEM [23] = assay: Growth inhibition of human CCRF-CEM cells assessed as cell growth at 10^-7 M by sulforhodamine B assay; details: read-out: Activity
[24] = read-out: LC50 (the source's name)
[25] = read-out: pLC50 (the source's name) (converted)

SMILES: CC(C)=CC(=O)O[C@@H]1CC(C)(C)C[C@H]2C3=CC[C@@H]4[C@@]5(C)CCC(=O)C(C)(C)[C@@H]5CC[C@@]4(C)[C@]3(C)CC[C@@]12C(=O)O
- GI50 (SK-MEL-28; read-out: GI50): 11.6 µM
- CC50 (SK-MEL-28; [24]): > 100 µM
- TGI (SK-MEL-28; read-out: TGI): > 100 µM
- GI50 (SK-MEL-28; read-out: pGI50 (converted)): 11.7 µM
- CC50 (SK-MEL-28; [25]): > 100 µM
- TGI (SK-MEL-28; read-out: pTGI (converted)): > 100 µM
- growth at 0.01 µM (786-0 [1]): 99%
- growth at 0.1 µM [2]: 95%
- growth at 0.01 µM (OVCAR-3): 104%
- growth at 0.1 µM [3]: 93%
- GI50 (786-0 [4]; read-out: GI50): 3.69 µM
- CC50 (786-0 [4]; [24]): > 100 µM
- TGI (786-0 [4]; read-out: TGI): 20.2 µM
- GI50 (786-0 [4]; read-out: pGI50 (converted)): 3.72 µM
- CC50 (786-0 [4]; [25]): > 100 µM
- TGI (786-0 [4]; read-out: pTGI (converted)): 20 µM
- growth at 0.1 µM (NCI-H522): 92%
- GI50 (NCI-H460; read-out: GI50): 2.21 µM
- LC50 (NCI-H460; read-out: LC50): 85.5 µM
- TGI (NCI-H460; read-out: TGI): 14.6 µM
- GI50 (NCI-H460; read-out: pGI50 (converted)): 2.19 µM
- LC50 (NCI-H460; read-out: pLC50 (converted)): 85.1 µM
- TGI (NCI-H460; read-out: pTGI (converted)): 14.5 µM
- growth at 0.01 µM (IGROV-1 [5]): 103%
- GI50 (MDA-MB-468 [6]; read-out: GI50): 2.27 µM
- CC50 (MDA-MB-468 [6]; [24]): > 100 µM
- TGI (MDA-MB-468 [6]; read-out: TGI): 13.7 µM
- GI50 (MDA-MB-468 [6]; read-out: pGI50 (converted)): 2.29 µM
- CC50 (MDA-MB-468 [6]; [25]): > 100 µM
- TGI (MDA-MB-468 [6]; read-out: pTGI (converted)): 13.8 µM
- growth at 0.01 µM (MDA-MB-435): 99%
- growth at 0.1 µM (Malme-3M): 90%
- growth at 1 µM (HCT-116 [7]): 70%
- growth at 1 µM (TK-10 [8]): 98%
- growth at 0.01 µM (COLO 205): 106%
- growth at 0.01 µM (K562 [9]): 116%
- growth at 1 µM (HOP-92): 69%
- growth at 100 µM (NCI-H23): -10%
- growth at 0.1 µM (MDA-MB-231 [10]): 93%
- growth at 100 µM (RPMI-8226): -19%
- growth at 1 µM (MDA-MB-231 [11]): 76%
- growth at 100 µM (MDA-MB-468 [12]): -37%
- growth at 0.1 µM (TK-10 [13]): 93%
- GI50 (RXF 393; read-out: GI50): 3.31 µM
- CC50 (RXF 393; [24]): 63.5 µM
- TGI (RXF 393; read-out: TGI): 16.3 µM
- GI50 (RXF 393; read-out: pGI50 (converted)): 3.31 µM
- CC50 (RXF 393; [25]): 63.1 µM
- TGI (RXF 393; read-out: pTGI (converted)): 16.2 µM
- growth at 1 µM (CCRF-CEM [14]): 71%
- growth at 1 µM (SN12C [15]): 80%
- growth at 100 µM (OVCAR-4): 10%
- growth at 100 µM [16]: 14%
- growth at 0.1 µM (SN12C [17]): 96%
- growth at 0.1 µM (UACC-62): 97%
- growth at 1 µM (IGROV-1 [18]): 98%
- GI50 (M14; read-out: GI50): 6.52 µM
- CC50 (M14; [24]): 76.6 µM
- TGI (M14; read-out: TGI): 25.2 µM
- GI50 (M14; read-out: pGI50 (converted)): 6.46 µM
- CC50 (M14; [25]): 75.9 µM
- TGI (M14; read-out: pTGI (converted)): 25.1 µM
- growth at 0.1 µM (CAKI-1): 93%
- growth at 1 µM (K562 [19]): 75%
- growth at 0.01 µM (SK-MEL-2): 94%
- GI50 (MDA-MB-231 [20]; read-out: GI50): 4.03 µM
- CC50 (MDA-MB-231 [20]; [24]): 71.1 µM
- TGI (MDA-MB-231 [20]; read-out: TGI): 21.8 µM
- GI50 (MDA-MB-231 [20]; read-out: pGI50 (converted)): 4.07 µM
- CC50 (MDA-MB-231 [20]; [25]): 70.8 µM
- TGI (MDA-MB-231 [20]; read-out: pTGI (converted)): 21.9 µM
- growth at 100 µM (HCT-116 [21]): -6%
- growth at 0.01 µM (NCI-H226): 95%
- growth at 100 µM (HL-60(TB)): -38%
- growth at 0.01 µM (SN12C [22]): 99%
- growth at 0.1 µM (CCRF-CEM [23]): 99%
